Source: patent US20240239861A1, “GLUCAGON-RECEPTOR SELECTIVE POLYPEPTIDES AND METHODS OF USE THEREOF” (i2O Therapeutics, Inc., priority 2016, published 2024)
*1 amine or outer side, *2 acyl side, *3 side chain or, on linkers, in order; H or OH if unused. Where a SMILES comes first, the peptide text is derived from it. Side-chain parts run from the residue outwards. [ ]: non-standard residue; d: D form. The star is where a group is joined. C18 diacid = O=C(O)CCCCCCCCCCCCCCCCC(=O)*; γGlu = O=C(O)[C@H](CCC(=O)[*:2])N[*:1]; Palmitoyl = CCCCCCCCCCCCCCCC(=O)*; AEEA = NCCOCCOCC(=O)O; Aib = CC(C)(N)C(=O)O

Legend:
human GLP-1R = human GLP-1R (Homo sapiens, UniProt P43220); assay: Peptide-receptor mediated cAMP accumulation (LANCE Ultra cAMP) in CHO-K1 cells transfected with human GLP-1R; format: cell-based; details: Table 7; GLP-1R; read-out: GLP-1R pEC50 (converted)
Sequence of human GLP-1R (P43220 24-463): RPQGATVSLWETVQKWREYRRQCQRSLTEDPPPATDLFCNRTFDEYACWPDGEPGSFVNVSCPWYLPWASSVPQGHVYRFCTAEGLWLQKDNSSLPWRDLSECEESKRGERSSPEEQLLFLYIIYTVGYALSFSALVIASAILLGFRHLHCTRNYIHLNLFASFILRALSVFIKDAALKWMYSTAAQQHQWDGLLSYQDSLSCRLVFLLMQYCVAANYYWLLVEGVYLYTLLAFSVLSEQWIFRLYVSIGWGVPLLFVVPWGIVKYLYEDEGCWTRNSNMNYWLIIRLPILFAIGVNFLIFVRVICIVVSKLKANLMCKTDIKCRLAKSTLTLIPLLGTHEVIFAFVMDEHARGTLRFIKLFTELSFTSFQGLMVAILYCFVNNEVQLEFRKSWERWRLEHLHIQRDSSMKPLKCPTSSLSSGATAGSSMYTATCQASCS

human GCGR = human GCGR (Homo sapiens, UniProt P47871); assay: Peptide-receptor mediated cAMP accumulation (LANCE Ultra cAMP) in CHO-K1 cells transfected with human GCGR; format: cell-based; details: read-out: GluR pEC50 (converted)
Sequence of human GCGR (P47871 26-477): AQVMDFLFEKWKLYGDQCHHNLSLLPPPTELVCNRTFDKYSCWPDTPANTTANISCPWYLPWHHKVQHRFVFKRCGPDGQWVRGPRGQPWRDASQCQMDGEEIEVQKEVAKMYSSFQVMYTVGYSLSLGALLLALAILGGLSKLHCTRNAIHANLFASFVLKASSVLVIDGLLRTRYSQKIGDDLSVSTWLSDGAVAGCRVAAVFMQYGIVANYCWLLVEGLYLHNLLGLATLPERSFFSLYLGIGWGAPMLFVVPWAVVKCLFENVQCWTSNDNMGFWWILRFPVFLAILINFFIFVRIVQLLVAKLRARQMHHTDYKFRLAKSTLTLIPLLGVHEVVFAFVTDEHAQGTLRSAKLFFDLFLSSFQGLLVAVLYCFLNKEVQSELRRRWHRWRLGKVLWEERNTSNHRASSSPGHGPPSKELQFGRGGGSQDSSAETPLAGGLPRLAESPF

Compound | EC50 (human GLP-1R) | EC50 (human GCGR)
CC(C)C[C@H](NC(=O)[C@H](Cc1ccc(O)cc1)NC(=O)[C@H](CCCCN)NC(=O)[C@H](CO)NC(=O)[C@H](CCCCNC(=O)COCCOCCNC(=O)COCCOCCNC(=O)CC[C@H](NC(=O)CCCCCCCCCCCCCCCCC(=O)O)C(=O)O)NC(=O)[C@H](CC(=O)O)NC(=O)[C@H](CO)NC(=O)[C@@H](NC(=O)[C@H](Cc1ccccc1)NC(=O)[C@@H](NC(=O)CNC(=O)[C@H](Cc1c[nH]cn1)NC(=O)[C@H](CO)NC(=O)[C@@H](N)Cc1ccc(O)cc1)[C@@H](C)O)[C@@H](C)O)C(=O)N[C@@H](CC(=O)O)C(=O)NC(C)(C)C(=O)N[C@@H](CCCCN)C(=O)N[C@@H](Cc1ccc(O)cc1)C(=O)N[C@@H](C)C(=O)N[C@@H](CCC(N)=O)C(=O)N[C@@H](CCC(=O)O)C(=O)N[C@@H](Cc1ccccc1)C(=O)N[C@H](C(=O)NC(C)(C)C(=O)N[C@@H](Cc1c[nH]c2ccccc12)C(=O)N[C@@H](CC(C)C)C(=O)N[C@@H](CCC(=O)O)C(=O)N[C@@H](CC(=O)O)C(=O)N[C@@H](CCC(=O)O)C(=O)N1CCC[C@H]1C(=O)N[C@@H](CO)C(=O)N[C@@H](CO)C(=O)NCC(=O)N[C@@H](C)C(=O)N1CCC[C@H]1C(=O)N1CCC[C@H]1C(=O)N1CCC[C@H]1C(=O)N[C@@H](CO)C(=O)O)C(C)C [Compound B8] (H-YSHGTFTSDK([AEEA-AEEA-γGlu-C18 diacid])SKYLD[Aib]KYAQEFV[Aib]WLEDEPSSGAPPPS-OH) | > 1000 nM | 0.0251 nM
CCCCCCCCCCCCCCCC(=O)N[C@@H](CCC(=O)NCCCC[C@H](NC(=O)[C@@H](NC(=O)[C@H](Cc1ccccc1)NC(=O)[C@H](CCC(=O)O)NC(=O)[C@H](CCC(N)=O)NC(=O)[C@H](C)NC(=O)[C@H](CO)NC(=O)[C@H](CCCCN)NC(=O)C(C)(C)NC(=O)[C@H](CC(=O)O)NC(=O)[C@H](CC(C)C)NC(=O)[C@H](Cc1ccc(O)cc1)NC(=O)[C@H](CCCCN)NC(=O)[C@H](CO)NC(=O)[C@H](Cc1ccc(O)cc1)NC(=O)[C@H](CC(=O)O)NC(=O)[C@H](CO)NC(=O)[C@@H](NC(=O)[C@H](Cc1ccccc1)NC(=O)[C@@H](NC(=O)CNC(=O)[C@H](Cc1c[nH]cn1)NC(=O)[C@H](CO)NC(=O)[C@@H](N)Cc1ccc(O)cc1)[C@@H](C)O)[C@@H](C)O)C(C)C)C(=O)N[C@@H](Cc1c[nH]c2ccccc12)C(=O)N[C@@H](CC(C)C)C(=O)N[C@@H](CCC(=O)O)C(=O)N[C@@H](CC(=O)O)C(=O)N[C@@H](CCC(=O)O)C(=O)N1CCC[C@H]1C(=O)N[C@@H](CO)C(=O)N[C@@H](CO)C(=O)NCC(=O)N[C@@H](C)C(=O)N1CCC[C@H]1C(=O)N1CCC[C@H]1C(=O)N1CCC[C@H]1C(=O)N[C@@H](CO)C(=O)O)C(=O)O [Compound B10] | > 1000 nM | 0.126 nM
CCCCCCCCCCCCCCCC(=O)N[C@@H](CCC(=O)NCCCC[C@H](NC(=O)[C@H](CC(=O)O)NC(=O)[C@H](CC(C)C)NC(=O)[C@H](Cc1ccc(O)cc1)NC(=O)[C@H](CCCCN)NC(=O)[C@H](CO)NC(=O)[C@H](Cc1ccc(O)cc1)NC(=O)[C@H](CC(=O)O)NC(=O)[C@H](CO)NC(=O)[C@@H](NC(=O)[C@H](Cc1ccccc1)NC(=O)[C@@H](NC(=O)CNC(=O)[C@H](Cc1c[nH]cn1)NC(=O)[C@H](CO)NC(=O)[C@@H](N)Cc1ccc(O)cc1)[C@@H](C)O)[C@@H](C)O)C(=O)N[C@@H](CCCCN)C(=O)N[C@@H](CO)C(=O)N[C@@H](C)C(=O)N[C@@H](CCC(N)=O)C(=O)N[C@@H](CCC(=O)O)C(=O)N[C@@H](Cc1ccccc1)C(=O)N[C@H](C(=O)NC(C)(C)C(=O)N[C@@H](Cc1c[nH]c2ccccc12)C(=O)N[C@@H](CC(C)C)C(=O)N[C@@H](CCC(=O)O)C(=O)N[C@@H](CC(=O)O)C(=O)N[C@@H](CCC(=O)O)C(=O)N1CCC[C@H]1C(=O)N[C@@H](CO)C(=O)N[C@@H](CO)C(=O)NCC(=O)N[C@@H](C)C(=O)N1CCC[C@H]1C(=O)N1CCC[C@H]1C(=O)N1CCC[C@H]1C(=O)N[C@@H](CO)C(=O)O)C(C)C)C(=O)O [Compound B11] | 501 nM | 0.0501 nM
CCCCCCCCCCCCCCCC(=O)N[C@@H](CCC(=O)NCCCC[C@H](NC(=O)[C@H](CC(=O)O)NC(=O)[C@H](CO)NC(=O)[C@@H](NC(=O)[C@H](Cc1ccccc1)NC(=O)[C@@H](NC(=O)CNC(=O)[C@H](Cc1c[nH]cn1)NC(=O)[C@H](CO)NC(=O)[C@@H](N)Cc1ccc(O)cc1)[C@@H](C)O)[C@@H](C)O)C(=O)N[C@@H](CO)C(=O)N[C@@H](CCCCN)C(=O)N[C@@H](Cc1ccc(O)cc1)C(=O)N[C@@H](CC(C)C)C(=O)N[C@@H](CC(=O)O)C(=O)NC(C)(C)C(=O)N[C@@H](CCCCN)C(=O)N[C@@H](CO)C(=O)N[C@@H](C)C(=O)N[C@@H](CCC(N)=O)C(=O)N[C@@H](CCC(=O)O)C(=O)N[C@@H](Cc1ccccc1)C(=O)N[C@H](C(=O)NC(C)(C)C(=O)N[C@@H](Cc1c[nH]c2ccccc12)C(=O)N[C@@H](CC(C)C)C(=O)N[C@@H](CCC(=O)O)C(=O)N[C@@H](CC(=O)O)C(=O)N[C@@H](CCC(=O)O)C(=O)N1CCC[C@H]1C(=O)N[C@@H](CO)C(=O)N[C@@H](CO)C(=O)NCC(=O)N[C@@H](C)C(=O)N1CCC[C@H]1C(=O)N1CCC[C@H]1C(=O)N1CCC[C@H]1C(=O)N[C@@H](CO)C(=O)O)C(C)C)C(=O)O [Compound B12] (H-YSHGTFTSDK([γGlu-Palmitoyl])SKYLD[Aib]KSAQEFV[Aib]WLEDEPSSGAPPPS-OH) | 63.1 nM | 0.00316 nM
CC(C)C[C@H](NC(=O)[C@H](Cc1ccc(O)cc1)NC(=O)[C@H](CCCCN)NC(=O)[C@H](CO)NC(=O)[C@H](Cc1ccc(O)cc1)NC(=O)[C@H](CC(=O)O)NC(=O)[C@H](CO)NC(=O)[C@@H](NC(=O)[C@H](Cc1ccccc1)NC(=O)[C@@H](NC(=O)CNC(=O)[C@H](Cc1c[nH]cn1)NC(=O)[C@H](CO)NC(=O)[C@@H](N)Cc1ccc(O)cc1)[C@@H](C)O)[C@@H](C)O)C(=O)N[C@@H](CC(=O)O)C(=O)NC(C)(C)C(=O)N[C@@H](CCCCN)C(=O)N[C@@H](CO)C(=O)N[C@@H](C)C(=O)N[C@@H](CCC(N)=O)C(=O)N[C@@H](CCC(=O)O)C(=O)N[C@@H](Cc1ccccc1)C(=O)N[C@H](C(=O)NC(C)(C)C(=O)N[C@@H](Cc1c[nH]c2ccccc12)C(=O)N[C@@H](CC(C)C)C(=O)N[C@@H](CCC(=O)O)C(=O)N[C@@H](CC(=O)O)C(=O)N[C@@H](CCC(=O)O)C(=O)N1CCC[C@H]1C(=O)N[C@@H](CO)C(=O)N[C@@H](CO)C(=O)N[C@@H](CCCCNC(=O)COCCOCCNC(=O)COCCOCCNC(=O)CC[C@H](NC(=O)CCCCCCCCCCCCCCCCC(=O)O)C(=O)O)C(=O)N[C@@H](C)C(=O)N1CCC[C@H]1C(=O)N1CCC[C@H]1C(=O)N1CCC[C@H]1C(=O)N[C@@H](CO)C(=O)O)C(C)C [Compound B13] | > 1000 nM | 0.631 nM
CC(C)C[C@H](NC(=O)[C@H](Cc1ccc(O)cc1)NC(=O)[C@H](CCCCN)NC(=O)[C@H](CO)NC(=O)[C@H](CCCCNC(=O)COCCOCCNC(=O)COCCOCCNC(=O)CC[C@H](NC(=O)CCCCCCCCCCCCCCCCC(=O)O)C(=O)O)NC(=O)[C@H](CC(=O)O)NC(=O)[C@H](CO)NC(=O)[C@@H](NC(=O)[C@H](Cc1ccccc1)NC(=O)[C@@H](NC(=O)CNC(=O)[C@H](Cc1c[nH]cn1)NC(=O)[C@H](CO)NC(=O)[C@@H](N)Cc1ccc(O)cc1)[C@@H](C)O)[C@@H](C)O)C(=O)N[C@@H](CC(=O)O)C(=O)NC(C)(C)C(=O)N[C@@H](CCCCN)C(=O)N[C@@H](CO)C(=O)N[C@@H](C)C(=O)N[C@@H](CCC(N)=O)C(=O)N[C@@H](CCC(=O)O)C(=O)N[C@@H](Cc1ccccc1)C(=O)N[C@H](C(=O)NC(C)(C)C(=O)N[C@@H](Cc1c[nH]c2ccccc12)C(=O)N[C@@H](CC(C)C)C(=O)N[C@@H](CCC(=O)O)C(=O)N[C@@H](CC(=O)O)C(=O)N[C@@H](CCC(=O)O)C(=O)N1CCC[C@H]1C(=O)N[C@@H](CO)C(=O)N[C@@H](CO)C(=O)NCC(=O)N[C@@H](C)C(=O)N1CCC[C@H]1C(=O)N1CCC[C@H]1C(=O)N1CCC[C@H]1C(=O)N[C@@H](CO)C(=O)O)C(C)C [Compound B16] (H-YSHGTFTSDK([AEEA-AEEA-γGlu-C18 diacid])SKYLD[Aib]KSAQEFV[Aib]WLEDEPSSGAPPPS-OH) | 5.01 nM | 3.16 nM
CCCCCCCCCCCCCCCC(=O)N[C@@H](CCC(=O)NCCCC[C@H](NC(=O)[C@H](CO)NC(=O)[C@H](CO)NC(=O)[C@@H]1CCCN1C(=O)[C@H](CCC(=O)O)NC(=O)[C@H](CC(=O)O)NC(=O)[C@H](CCC(=O)O)NC(=O)[C@H](CC(C)C)NC(=O)[C@H](Cc1c[nH]c2ccccc12)NC(=O)C(C)(C)NC(=O)[C@@H](NC(=O)[C@H](Cc1ccccc1)NC(=O)[C@H](CCC(=O)O)NC(=O)[C@H](CCC(N)=O)NC(=O)[C@H](C)NC(=O)[C@H](CCCNC(=N)N)NC(=O)[C@H](CCCCN)NC(=O)C(C)(C)NC(=O)[C@H](CC(=O)O)NC(=O)[C@H](CC(C)C)NC(=O)[C@H](Cc1ccc(O)cc1)NC(=O)[C@H](CCCCN)NC(=O)[C@H](CO)NC(=O)[C@H](Cc1ccc(O)cc1)NC(=O)[C@H](CC(=O)O)NC(=O)[C@H](CO)NC(=O)[C@@H](NC(=O)[C@H](Cc1ccccc1)NC(=O)[C@@H](NC(=O)CNC(=O)[C@H](CCC(N)=O)NC(=O)[C@H](CO)NC(=O)[C@@H](N)Cc1c[nH]c2ccccc12)[C@@H](C)O)[C@@H](C)O)C(C)C)C(=O)N[C@@H](C)C(=O)N1CCC[C@H]1C(=O)N1CCC[C@H]1C(=O)N1CCC[C@H]1C(=O)N[C@@H](CO)C(=O)O)C(=O)O [Compound B17] (H-WSQGTFTSDYSKYLD[Aib]KRAQEFV[Aib]WLEDEPSSK([γGlu-Palmitoyl])APPPS-OH) | > 1000 nM | 0.0316 nM
